Reference: PubChem BioAssay AID732 (Emory University Molecular Libraries Screening Center, 2007)
Values joined by “and” are separate entries in the source; they are usually repeats but may differ in a detail not shown here. Equal entries are not always repeated. Active and inactive are the calls of the source. No rule for the calls is given here.

What follows are compounds tested on in vivo angiogenesis, blood vessel count (assay: reduction of blood vessel formation in vivo – HTS, in vivo study (AID 732;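 also: zebrafish embryos dosed at one day post fertilization; 0% = reference inhibitor and 100% = plate mean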)). Details: hits give low values;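 tested at 30 µM in the well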.

| Compound | vessel count % control |
| --- | --- |
| Nc1ncn([C@@H]2O[C@H](CO)[C@@H](O)[C@H]2O)c(=O)n1 | 65.2% (inactive) |
| N[C@@H](Cc1cnc[nH]1)C(=O)O | 107% (inactive) |
| NCCCNCCSP(=O)(O)O | 93.3% (inactive) |
| NS(=O)(=O)c1cccc2c1c([N+](=O)[O-])cc1nc(O)c(O)nc12 | 111% (inactive) |
| CC(C)N(CCC(C(N)=O)(c1ccccc1)c1ccccn1)C(C)C (centres undefined) | 99.1% (inactive) and 109% (inactive) |
| C=C(C)C1CC=C(C(=O)O)CC1 (centres undefined) | 109% (inactive) |
| S=C(NC1CCCCC1)N1CCC(c2cnc[nH]2)CC1 | 129% (inactive) |
| Cc1cc(C)c(/C=C2\C(=O)Nc3ccccc32)[nH]1 | 0% (inactive) |
| c1ccc(C2CC2)c(OCC2=NCCN2)c1 | 104% (inactive) |
| Cc1cccc(C#Cc2ccccc2)n1 | 92.1% (inactive) |
| O=C(O)CCC(=O)N1CCCC1C(=O)O (centres undefined) | 109% (inactive) |
| Oc1ccc2c3c1O[C@H]1c4[nH]c5c(c4C[C@@]4(O)[C@@H](C2)N(CC2CC2)CC[C@]314)C[C@@]1(O)[C@H]2Cc3ccc(O)c4c3[C@@]1(CCN2CC1CC1)[C@H]5O4 | 81.2% (inactive) |
| NC12CC3CC(CC(C3)C1)C2 | 110% (inactive) |
| NC(=NCc1ccc(Cl)c(Cl)c1)NC(=O)c1nc(Cl)c(N)nc1N | 108% (inactive) |
| O=C(O)C1CCNCC1 | 99.7% (inactive) |
| COc1cc([C@@H]2c3cc4c(cc3[C@H](O)C3COC(=O)[C@@H]32)OCO4)cc(OC)c1OC (some centres undefined) | 88.6% (inactive) |
| C[C@H](N)CN1CCc2ccc(Br)cc21 | 126% (inactive) |
| CC(N=C(NC#N)Nc1ccncc1)C(C)(C)C (centres undefined) | 98.9% (inactive) |
| O=C1C(c2c(O)[nH]c3ccc(Cl)cc23)=Nc2ccccc21 | 87.6% (inactive) |
